Results from patent US6706740B2, “Fungicidal heterocyclic aromatic amides and their compositions, methods of use and preparation” (Dow AgroSciences LLC, priority 1999, dated 2004).

Assays:
[1] = system: Leptosphaeria nodorum—LEPTNO; assay: Glume Blotch of Wheat, in vivo whole plant, 24 Hour Protectant; details: wheat plants sprayed at 100 ppm, inoculated after 24 hours, control of fungal infection vs untreated plants; for pest or weed control at 100 ppm: Leptosphaeria, read-out: LEPTNO in vivo 1 Day Protectant
[2] = system: Stagonospora nodorum (Leptosphaeria nodorum—LEPTNO); assay: In vitro fungal growth inhibition, Stagonospora nodorum (LEPTNO); assay type: cell-based; details: Leptosphaeria; 25 ppm in the growth medium; read-out: LEPTNO in vitro Growth Inhibition
[3] = system: Mycosphaerella graminicola (Septoria tritici—SEPTTR); assay: In vitro fungal growth inhibition, Mycosphaerella graminicola (SEPTTR); assay type: cell-based; details: Zymoseptoria tritici; 25 ppm in the growth medium; read-out: SEPTTR in vitro Growth Inhibition
Ustilago maydis (USTIMA) = assay: microbe, parasite or virus in culture; assay type: cell-based; details: Mycosarcoma maydis, read-out: USTIMA in vitro Growth Inhibition
Erysiphe graminis—ERYSGT = assay: Powdery Mildew of Wheat, in vivo whole plant, 24 Hour Protectant; details: Erysiphe; wheat plants sprayed at 100 ppm, inoculated after 24 hours; control of fungal infection vs untreated plants; read-out: ERYSGT in vivo 1 Day Protectant
[4] = system: Phytophthora infestans—PHYTIN; assay: whole plant or invertebrate; assay type: in vivo; details: Phytophthora, in Solanum lycopersicum, 24 h, read-out: PHYTIN in vivo 1 Day Protectant
Septoria tritici—SEPTTR = assay: Leaf Blotch of Wheat, in vivo whole plant, 24 Hour Protectant; details: Zymoseptoria tritici, 24 h, wheat plants sprayed at 100 ppm, inoculated after 24 hours; control of fungal infection vs untreated plants; read-out: SEPTTR in vivo 1 Day Protectant
[5] = system: Puccinia recondita—PUCCRT; assay: Brown Rust of Wheat, in vivo whole plant, 24 Hour Protectant; details: Puccinia; wheat plants sprayed at 100 ppm, inoculated after 24 hours; control of fungal infection vs untreated plants; read-out: PUCCRT in vivo 1 Day Protectant
[6] = system: Rhizoctonia solani (RHIZSO); assay: microbe, parasite or virus in culture; assay type: cell-based; details: Rhizoctonia solani, read-out: RHIZSO in vitro Growth Inhibition
[7] = system: Magnaporthe grisea (Pyricularia oryzae—PYRIOR); assay: microbe, parasite or virus in culture; assay type: cell-based; details: Pyricularia oryzae, read-out: PYRIOR in vitro Growth Inhibition
[8] = system: Phytophthora infestans (PHYTIN); assay: microbe, parasite or virus in culture; assay type: cell-based; details: Phytophthora infestans, read-out: PHYTIN in vitro Growth Inhibition

| SMILES | pest or weed control at 100 ppm [1] | inhibition at 25 ppm [2] | inhibition at 25 ppm [3] | inhibition at 25 ppm (Ustilago maydis (USTIMA)) | pest or weed control at 100 ppm (Erysiphe graminis—ERYSGT) | melting point | pest or weed control at 100 ppm [4] | pest or weed control at 100 ppm (Septoria tritici—SEPTTR) | pest or weed control at 100 ppm [5] | inhibition at 25 ppm [6] | inhibition at 25 ppm [7] | inhibition at 25 ppm [8] | LEPTNO in vivo 1 Day Protectant [1] |
| --- | --- | --- | --- | --- | --- | --- | --- | --- | --- | --- | --- | --- | --- |
| O=C(Nc1ccccc1Oc1ccccc1)c1cccnc1O [Compound 520] | 25 to 74% | < 80% | < 80% | < 80% | < 25% | 234 to 235 °C | < 25% | < 25% | < 25% | < 80% | < 80% | < 80% |  |
| O=C(Nc1cccc(Oc2ccccc2)c1)c1cccnc1O [Compound 521] | 25 to 74% | < 80% | < 80% | < 80% | < 25% | 200 to 201 °C | 25 to 74% | < 25% | < 25% | < 80% | < 80% | < 80% |  |
| O=C(Nc1ccc(Oc2ccccc2)cc1)c1cccnc1O [Compound 522] |  | < 80% | < 80% | < 80% | < 25% | 223 to 224 °C | < 25% | < 25% | < 25% | < 80% | < 80% | < 80% | + + |
| Cc1ccc(C(=O)NC2CC(C)(C)CC(C)(C)C2)c(O)n1 [Compound 524] | < 25% | < 80% | < 80% | < 80% | < 25% | 307 to 308 °C | < 25% | 25 to 74% | < 25% | < 80% | < 80% | < 80% |  |
| Cc1ccc(C(=O)N[C@H]2COC(=O)[C@H](Cc3ccccc3)[C@@H](OC(=O)C(C)C)[C@H](C)OC2=O)c(O)n1 [Compound 525] |  | < 80% | < 80% | < 80% | < 25% | 247 to 250 °C | < 25% | 25 to 74% | 25 to 74% | < 80% | < 80% | < 80% | + + |
| CC1(C)CC(NC(=O)c2cc(O)cnc2O)CC(C)(C)C1 [Compound 526] | 25 to 74% | < 80% | < 80% | < 80% | < 25% | 320 to 327 °C | < 25% | 25 to 74% | < 25% | < 80% | < 80% | < 80% |  |
| CC(C)C(=O)O[C@H]1[C@H](C)OC(=O)[C@@H](NC(=O)c2cc(O)cnc2O)COC(=O)[C@@H]1Cc1ccccc1 [Compound 527] | < 25% | < 80% | < 80% | < 80% | < 25% | 120 to 130 °C | < 25% | 25 to 74% | 25 to 74% | < 80% | < 80% | < 80% |  |
| Cc1cc(C)c(C(=O)NC2CC(C)(C)CC(C)(C)C2)c(O)n1 [Compound 528] | < 25% | < 80% | < 80% | < 80% | < 25% | 286 to 288 °C | < 25% | 25 to 74% | < 25% | < 80% | < 80% | < 80% |  |
| Cc1nc(O)c(C(=O)NC2CC(C)(C)CC(C)(C)C2)cc1Cl [Compound 530] | 25 to 74% | < 80% | < 80% | < 80% | < 25% | 329 to 331 °C | < 25% | 25 to 74% | 25 to 74% | < 80% | < 80% | < 80% |  |
